This passage reports inhibition and pest or weed control results from US12540118B2, “Dendrene amide compound, bactericide and use thereof” (Jiangsu Flag Chemical Industry Co., Ltd., priority 2020, dated 2026).

Bounds are passed on as bounds.

T1 sequence (Q0QF01 43-664 partner): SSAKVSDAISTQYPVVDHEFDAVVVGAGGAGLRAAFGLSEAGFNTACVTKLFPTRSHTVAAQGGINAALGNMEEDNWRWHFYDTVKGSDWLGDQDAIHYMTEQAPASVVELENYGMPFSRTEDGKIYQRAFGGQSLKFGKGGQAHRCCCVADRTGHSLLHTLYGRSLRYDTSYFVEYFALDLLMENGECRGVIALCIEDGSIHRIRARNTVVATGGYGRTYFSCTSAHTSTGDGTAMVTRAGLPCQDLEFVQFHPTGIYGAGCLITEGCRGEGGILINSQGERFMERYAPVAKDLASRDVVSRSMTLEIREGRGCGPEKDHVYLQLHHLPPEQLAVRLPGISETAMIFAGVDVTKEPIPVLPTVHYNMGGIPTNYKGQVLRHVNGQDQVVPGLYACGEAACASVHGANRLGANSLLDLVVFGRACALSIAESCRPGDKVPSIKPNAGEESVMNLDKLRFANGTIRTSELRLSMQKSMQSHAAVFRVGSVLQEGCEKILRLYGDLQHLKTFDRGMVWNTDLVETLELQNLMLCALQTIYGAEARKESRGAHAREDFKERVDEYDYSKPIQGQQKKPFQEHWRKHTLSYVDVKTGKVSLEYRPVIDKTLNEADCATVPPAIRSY
T1 sequence (Q007T0 29-280): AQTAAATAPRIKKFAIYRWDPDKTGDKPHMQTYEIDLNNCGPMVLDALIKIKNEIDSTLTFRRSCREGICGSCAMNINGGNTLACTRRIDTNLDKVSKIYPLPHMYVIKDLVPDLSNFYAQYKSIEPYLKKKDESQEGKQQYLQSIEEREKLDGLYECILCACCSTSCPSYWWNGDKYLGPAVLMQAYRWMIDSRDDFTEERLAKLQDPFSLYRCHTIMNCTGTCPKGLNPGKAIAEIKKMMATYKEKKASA
T1 sequence (D0VWV4 30-169): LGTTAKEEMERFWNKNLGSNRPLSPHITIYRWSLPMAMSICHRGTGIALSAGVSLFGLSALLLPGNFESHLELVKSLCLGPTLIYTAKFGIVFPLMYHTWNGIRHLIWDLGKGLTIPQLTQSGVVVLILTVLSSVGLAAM
T1 sequence (A5GZW8 57-159 limits assumed): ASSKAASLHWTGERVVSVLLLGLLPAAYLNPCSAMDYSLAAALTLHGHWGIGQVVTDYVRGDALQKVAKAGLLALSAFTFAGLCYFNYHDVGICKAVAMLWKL

The first test has as its target T1, succinate dehydrogenase (Sus scrofa, UniProt A5GZW8+D0VWV4+Q007T0).
T1 construct: isolated from porcine hearts; from tissue; host or cells: porcine heart
The test can be described thus: Enzyme activity assay, succinate dehydrogenase (DCIP reduction). Particulars: read-out: Inhibitors (10 μM, SQR). The test is classed as biochemical, porcine. As to the method:
The inhibitory activities of control agents and target compounds on succinate dehydrogenase are determined.
The enzyme used in this test example is succinate dehydrogenase, which is isolated from porcine hearts.
The test method comprises the following steps: The total volume of the system is 1.8 ml, and the system contained 100 mM Na2HPO4—NaH2PO4 buffer (pH=7.4), 0.3 mM EDTA, 20 mM sodium succinate, 53 μM DCIP (2,6-dichloroindophenol sodium), and 2 nM succinate dehydrogenase. Thermostatic waterbath at 23° C. and magnetic stirring at 600 rpm. The decrease in the light absorption of the substrate DCIP is monitored at a wavelength of 600 nm and experimental points in a linear range are collected. Control substrate consumption not more than 5% of the experimental points. The molar extinction coefficient of DCIP is 21 mM^−1 cm^−1. And calculating the reduction yield of the DCIP in the reaction time, fitting a linear slope, and deducting the baseline slope to obtain the initial reaction speed.
As to `Cc1cccc(C(=C(Cl)Cl)C(C)N(C(=O)c2c(C(F)F)nn(C)c2F)C2CC2)c1` (stereo not drawn) [Compound 192], the inhibition at 10 µM is > 90%.
Still for that read-out and setting: the value for `C=C(c1ccccc1Br)C(C)N(C(=O)c1c(C(F)F)nn(C)c1F)C1CC1` (stereo not drawn) [Compound 80] was > 90%.
As to `CC(C(=C(Cl)Cl)c1cc(Br)ccc1Br)N(C(=O)c1c(C(F)F)nn(C)c1F)C1CC1` (stereo not drawn) [Compound 188], the inhibition at 10 µM was > 90%.
`C=C(CN(C(=O)c1c(C(F)F)nn(C)c1F)C1CC1)c1cc(Br)ccc1Br` [Compound 29]: the inhibition at 10 µM is > 90%.
The same measure, in the same setting: the value for `C=C(c1ccc(C)cc1C)C(C)N(C(=O)c1c(C(F)F)nn(C)c1F)C1CC1` (stereo not drawn) [Compound 88] was > 90%; that for `C=C(CN(C(=O)c1c(C(F)F)nn(C)c1F)C1CC1)c1c(F)cc(F)cc1F` [Compound 26] was > 90%.
Consider `Cn1nc(C(F)F)c(C(=O)N(CC(=C(Cl)Cl)c2ccc(F)c(F)c2)C2CC2)c1F` [Compound 130], for which the inhibition at 10 µM was > 90%.
The same measure, in the same setting: the value for `CC(C(=C(Cl)Cl)c1c(F)cccc1F)N(C(=O)c1c(C(F)F)nn(C)c1F)C1CC1` (stereo not drawn) [Compound 181] was > 90%; that for `CC(C(=C(Cl)Cl)c1ccc(F)cc1F)N(C(=O)c1c(C(F)F)nn(C)c1F)C1CC1` (stereo not drawn) [Compound 179] was > 90%; that for `C=C(CN(C(=O)c1c(C(F)F)nn(C)c1F)C1CC1)c1ccc(C)cc1` [Compound 4] was > 90%.
As to `CC(C(=C(Cl)Cl)c1ccc(Br)cc1Br)N(C(=O)c1c(C(F)F)nn(C)c1F)C1CC1` (stereo not drawn) [Compound 187], the inhibition at 10 µM was > 90%.
Still for that read-out and setting: the value for `Cc1ccccc1C(CN(C(=O)c1c(C(F)F)nn(C)c1F)C1CC1)=C(Cl)Cl` [Compound 149] was > 90%.
As for `C=C(CN(C(=O)c1c(C(F)F)nn(C)c1F)C1CC1)c1ccccc1` [Compound 9], the inhibition at 10 µM is > 90%.
In the case of `CC(C(=C(Cl)Cl)c1ccc(F)c(F)c1)N(C(=O)c1c(C(F)F)nn(C)c1F)C1CC1` (stereo not drawn) [Compound 183], the inhibition at 10 µM was > 90%.
On to `C=C(CN(C(=O)c1c(C(F)F)nn(C)c1F)C1CC1)c1c(Br)cccc1Br` [Compound 30], for which the inhibition at 10 µM was > 90%.
Same read-out and setting: the value for `C=C(CN(C(=O)c1c(C(F)F)nn(C)c1F)C1CC1)c1ccc(C(F)(F)F)cc1Cl` [Compound 47] was > 90%.
On the same count and under the same terms, the value for `CC(C(=C(Cl)Cl)c1ccc(C#CC2CC2)cc1Cl)N(C(=O)c1c(C(F)F)nn(C)c1F)C1CC1` (stereo not drawn) [Compound 218] was > 90%.

The test system of the next test is Erysiphe graminis. In words: Erysiphe graminis potting method. The test is classed as in vivo. The conditions noted are these: Blumeria graminis; 100 mg/L; read-out: Erysiphe graminis control rating. The protocol:
The fungicidal activity of the control agents and target compounds are determined. The test and investigation method refers to SOP-SC-1116 Erysiphe graminis potting method in disinfectant rolls written by KANGZHUO and GUBAOGEN in “Standard operation specification for testing biological activity of pesticides”.
Turning to `Cc1cccc(C(=C(Cl)Cl)C(C)N(C(=O)c2c(C(F)F)nn(C)c2F)C2CC2)c1` (stereo not drawn) [Compound 192], the pest or weed control at 100 µg/mL lay within 80 to 100%.
Still for that read-out and setting: the value for `C=C(c1ccccc1Br)C(C)N(C(=O)c1c(C(F)F)nn(C)c1F)C1CC1` (stereo not drawn) [Compound 80] was 80 to 100%; that for `CC(C(=C(Cl)Cl)c1cc(Br)ccc1Br)N(C(=O)c1c(C(F)F)nn(C)c1F)C1CC1` (stereo not drawn) [Compound 188] was 80 to 100%; that for `C=C(CN(C(=O)c1c(C(F)F)nn(C)c1F)C1CC1)c1cc(Br)ccc1Br` [Compound 29] was 80 to 100%.
For the compound `C=C(c1ccc(C)cc1C)C(C)N(C(=O)c1c(C(F)F)nn(C)c1F)C1CC1` (stereo not drawn) [Compound 88], the pest or weed control at 100 µg/mL fell in the range of 80 to 100%.
The same measure, in the same setting: in the case of `C=C(CN(C(=O)c1c(C(F)F)nn(C)c1F)C1CC1)c1c(F)cc(F)cc1F` [Compound 26] it was 80 to 100%; in that of `Cn1nc(C(F)F)c(C(=O)N(CC(=C(Cl)Cl)c2ccc(F)c(F)c2)C2CC2)c1F` [Compound 130], 80 to 100%; in that of `CC(C(=C(Cl)Cl)c1c(F)cccc1F)N(C(=O)c1c(C(F)F)nn(C)c1F)C1CC1` (stereo not drawn) [Compound 181], 80 to 100%.
Still for that read-out and setting: in the case of `CC(C(=C(Cl)Cl)c1ccc(F)cc1F)N(C(=O)c1c(C(F)F)nn(C)c1F)C1CC1` (stereo not drawn) [Compound 179] it was 80 to 100%; in that of `C=C(CN(C(=O)c1c(C(F)F)nn(C)c1F)C1CC1)c1ccc(C)cc1` [Compound 4], 80 to 100%.
Still for that read-out and setting: in the case of `CC(C(=C(Cl)Cl)c1ccc(Br)cc1Br)N(C(=O)c1c(C(F)F)nn(C)c1F)C1CC1` (stereo not drawn) [Compound 187] it was 80 to 100%.
With `Cc1ccccc1C(CN(C(=O)c1c(C(F)F)nn(C)c1F)C1CC1)=C(Cl)Cl` [Compound 149], the pest or weed control at 100 µg/mL was 80 to 100%.
For the compound `C=C(CN(C(=O)c1c(C(F)F)nn(C)c1F)C1CC1)c1ccccc1` [Compound 9], the pest or weed control at 100 µg/mL was 80 to 100%.
On the same count and under the same terms, in the case of `CC(C(=C(Cl)Cl)c1ccc(F)c(F)c1)N(C(=O)c1c(C(F)F)nn(C)c1F)C1CC1` (stereo not drawn) [Compound 183] it was 80 to 100%; in that of `C=C(CN(C(=O)c1c(C(F)F)nn(C)c1F)C1CC1)c1c(Br)cccc1Br` [Compound 30], 80 to 100%; in that of `C=C(CN(C(=O)c1c(C(F)F)nn(C)c1F)C1CC1)c1ccc(C(F)(F)F)cc1Cl` [Compound 47], 80 to 100%.
The same measure, in the same setting: the value for `CC(C(=C(Cl)Cl)c1ccc(C#CC2CC2)cc1Cl)N(C(=O)c1c(C(F)F)nn(C)c1F)C1CC1` (stereo not drawn) [Compound 218] was 80 to 100%.

The next test concerns Sphaerotheca fuliginea. In words: Sphaerotheca fuliginea potting method. The test is classed as in vivo. The conditions noted are these: Podosphaera fuliginea; 100 mg/L; read-out: Sphaerotheca fuliginea control rating. As to the method: The fungicidal activity of the control agents and target compounds are determined. The test and investigation method refers to SOP-SC-1101 sphaerotheca fuliginea potting method in disinfectant rolls written by KANGZHUO and GUBAOGEN in “Standard operation specification for testing biological activity of pesticides”.
For the compound `Cc1cccc(C(=C(Cl)Cl)C(C)N(C(=O)c2c(C(F)F)nn(C)c2F)C2CC2)c1` (stereo not drawn) [Compound 192], the pest or weed control at 100 µg/mL is 80 to 100%.
Regarding `C=C(c1ccccc1Br)C(C)N(C(=O)c1c(C(F)F)nn(C)c1F)C1CC1` (stereo not drawn) [Compound 80], the pest or weed control at 100 µg/mL lay in the range of 80 to 100%.
For the compound `CC(C(=C(Cl)Cl)c1cc(Br)ccc1Br)N(C(=O)c1c(C(F)F)nn(C)c1F)C1CC1` (stereo not drawn) [Compound 188], the pest or weed control at 100 µg/mL fell in the range of 80 to 100%.
The same measure, in the same setting: in the case of `C=C(CN(C(=O)c1c(C(F)F)nn(C)c1F)C1CC1)c1cc(Br)ccc1Br` [Compound 29] it was 80 to 100%.
Same read-out and setting: in the case of `C=C(c1ccc(C)cc1C)C(C)N(C(=O)c1c(C(F)F)nn(C)c1F)C1CC1` (stereo not drawn) [Compound 88] it was 80 to 100%; in that of `C=C(CN(C(=O)c1c(C(F)F)nn(C)c1F)C1CC1)c1c(F)cc(F)cc1F` [Compound 26], 80 to 100%; in that of `Cn1nc(C(F)F)c(C(=O)N(CC(=C(Cl)Cl)c2ccc(F)c(F)c2)C2CC2)c1F` [Compound 130], 80 to 100%.
Still for that read-out and setting: the value for `CC(C(=C(Cl)Cl)c1c(F)cccc1F)N(C(=O)c1c(C(F)F)nn(C)c1F)C1CC1` (stereo not drawn) [Compound 181] was 80 to 100%.
For `CC(C(=C(Cl)Cl)c1ccc(F)cc1F)N(C(=O)c1c(C(F)F)nn(C)c1F)C1CC1` (stereo not drawn) [Compound 179], the pest or weed control at 100 µg/mL lay in the range of 80 to 100%.
On the same count and under the same terms, the value for `C=C(CN(C(=O)c1c(C(F)F)nn(C)c1F)C1CC1)c1ccc(C)cc1` [Compound 4] was < 70%; that for `CC(C(=C(Cl)Cl)c1ccc(Br)cc1Br)N(C(=O)c1c(C(F)F)nn(C)c1F)C1CC1` (stereo not drawn) [Compound 187] was 80 to 100%.
Regarding `Cc1ccccc1C(CN(C(=O)c1c(C(F)F)nn(C)c1F)C1CC1)=C(Cl)Cl` [Compound 149], the pest or weed control at 100 µg/mL was in the range of 80 to 100%.
On the same count and under the same terms, the value for `C=C(CN(C(=O)c1c(C(F)F)nn(C)c1F)C1CC1)c1ccccc1` [Compound 9] was < 70%; that for `CC(C(=C(Cl)Cl)c1ccc(F)c(F)c1)N(C(=O)c1c(C(F)F)nn(C)c1F)C1CC1` (stereo not drawn) [Compound 183] was 80 to 100%; that for `C=C(CN(C(=O)c1c(C(F)F)nn(C)c1F)C1CC1)c1c(Br)cccc1Br` [Compound 30] was 80 to 100%.
Regarding `C=C(CN(C(=O)c1c(C(F)F)nn(C)c1F)C1CC1)c1ccc(C(F)(F)F)cc1Cl` [Compound 47], the pest or weed control at 100 µg/mL fell in the range of 80 to 100%.
Same read-out and setting: the value for `CC(C(=C(Cl)Cl)c1ccc(C#CC2CC2)cc1Cl)N(C(=O)c1c(C(F)F)nn(C)c1F)C1CC1` (stereo not drawn) [Compound 218] was 80 to 100%.
